We go through five compounds from BindingDB's records for doi:10.1016/j.bioorg.2016.06.004 (Nirma University, 2016).

Each structure is given as a SMILES string.

The test concerns the target T1, Seed linoleate 13S-lipoxygenase-1 (Glycine max, UniProt P08170).
T1 sequence (P08170 whole entry): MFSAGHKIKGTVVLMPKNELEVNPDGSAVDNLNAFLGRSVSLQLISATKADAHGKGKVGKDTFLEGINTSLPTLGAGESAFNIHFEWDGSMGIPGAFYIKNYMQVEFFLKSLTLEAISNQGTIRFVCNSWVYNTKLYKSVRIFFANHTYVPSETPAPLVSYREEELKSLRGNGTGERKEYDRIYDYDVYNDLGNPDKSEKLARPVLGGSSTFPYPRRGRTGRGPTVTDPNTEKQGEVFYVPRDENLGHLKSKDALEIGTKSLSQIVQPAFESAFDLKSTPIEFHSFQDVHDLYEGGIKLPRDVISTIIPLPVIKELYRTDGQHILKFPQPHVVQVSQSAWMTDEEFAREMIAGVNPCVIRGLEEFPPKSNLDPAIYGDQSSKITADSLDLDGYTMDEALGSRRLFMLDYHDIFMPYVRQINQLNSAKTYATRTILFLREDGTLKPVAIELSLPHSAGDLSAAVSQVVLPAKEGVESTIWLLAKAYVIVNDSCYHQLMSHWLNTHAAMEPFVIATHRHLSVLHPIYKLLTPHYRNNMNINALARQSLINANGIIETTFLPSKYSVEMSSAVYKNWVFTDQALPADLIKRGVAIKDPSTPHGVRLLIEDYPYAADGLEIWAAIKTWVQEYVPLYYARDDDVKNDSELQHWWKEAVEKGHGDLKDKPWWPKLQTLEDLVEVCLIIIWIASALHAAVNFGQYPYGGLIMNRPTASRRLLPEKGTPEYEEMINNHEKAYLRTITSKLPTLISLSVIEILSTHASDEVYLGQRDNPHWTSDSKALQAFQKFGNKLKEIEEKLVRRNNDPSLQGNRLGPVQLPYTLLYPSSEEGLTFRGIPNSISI
Kind of test: In-vitro LOX Inhibition Assay. To be noted: pH 9; 25 °C. The procedure: It is determined by kinetic mode of spectro-photometric determination method,which was performed by recording the rate of change in absorbance at 234 nm. It is based on the principle that the increase of absorbance at 234 nm due to formation of 9- and 13- hydroperoxides by LOX with substrate (linoleic acid). […] Briefly, the stock solution of lipoxygenase was prepared by dissolving 10,000 units/ml of Lipoxidase in 200 mM borate buffer, pH 9, and 5 uL of 80 mmol linoleic acid. Six different concentrations of inhibitors were selected, and made for determining the enzyme inhibition activity. Increasing concentrations of inhibitors were added to enzyme solution and kept for 5 min followed by substrate addition and kept at room temperature with stirring for 20 min.
Regarding `Cc1cc(=O)oc2cc(OCC(O)CNc3nc4ccc([N+](=O)[O-])cc4s3)ccc12` (stereo not given) [7-(2-hydroxy-3-(6-nitrobenzo[d]thiazol-2-ylamino)propoxy)-4-methyl-2H-chromen-2-one (31)], the IC50 – broadly, the concentration needed to halve the response being measured – is 3.24 nM.
Compound `Cc1cc(=O)oc2cc(OCC(O)CNc3nc4cc(Cl)c(F)cc4s3)ccc12` (stereo not given) [7-(3-(5-chloro-6-fluorobenzo[d]thiazol-2-ylamino)-2-hydroxypropoxy)-4-methyl-2H-chromen-2-one (32)] came in with an IC50 of 6.16 nM.
The compound `Cc1cc(=O)oc2cc(OCC(O)CNc3nc4ccc(Cl)cc4s3)ccc12` (stereo not given) [7-(3-(6-chlorobenzo[d]thiazol-2-ylamino)-2-hydroxypropoxy)-4-methyl-2H-chromen-2-one (33)] had an IC50 of 2.79 nM.
`Cc1cc(=O)oc2cc(OCC(O)CNc3nc4cc(Cl)c(Cl)cc4s3)ccc12` (stereo not given) [7-(3-(5,6-dichlorobenzo[d]thiazol-2-ylamino)-2-hydroxypropoxy)-4-methyl-2H-chromen-2-one (34)] displayed an IC50 of 15.5 nM.
In turn, `COc1ccc2nc(NCC(O)COc3ccc4c(C)cc(=O)oc4c3)sc2c1` (stereo not given) [7-(2-hydroxy-3-(6-methoxybenzo[d]thiazol-2-ylamino)propoxy)-4-methyl-2H-chromen-2-one (35)] gave an IC50 of 2.12 nM.
